This note sets out measurements from patent US20220289766A1 (INFLAZOME LIMITED, priority 2019, published 2022).

One may read the IC50 as the point on the concentration scale where inhibition reaches its midpoint.

Structures can show the parent of a compound that is named as a salt. A value given as a limit tells only on which side of the number the result lay.

Assay [1] concerns the target T1, NLRP3 (Homo sapiens, UniProt Q96P20). The assay can be described thus: THP-1 cells pyroptosis assay. The class given is cell-based. The arrangement: Seed THP-1 cells (25,000 cells/well) containing 1.0 μg/ml LPS in 40 μl of RPMI medium; host or cells: THP-1 cells. As to conditions: LPS 1 μg/ml, compound 3 hrs, nigericin 5 μM 1 hr, resazurin readout. The protocol: THP-1 cells (ATCC #TIB-202) were grown in RPMI containing L-glutamine (Gibco #11835) supplemented with 1 mM sodium pyruvate (Sigma #S8636) and penicillin (100 units/ml)/streptomycin (0.1 mg/ml) (Sigma #P4333) in 10% Fetal Bovine Serum (FBS) (Sigma #F0804). The cells were routinely passaged and grown to confluency (˜10^6 cells/ml). On the day of the experiment, THP-1 cells were harvested and resuspended into RPMI medium (without FBS). The cells were then counted and viability ([…]) checked by Trypan blue (Sigma #T8154). Appropriate dilutions were made to give a concentration of 625,000 cells/ml. To this diluted cell solution was added LPS (Sigma #L4524) to give a 1 μg/ml Final Assay Concentration (FAC). 40 μl of the final preparation was aliquoted into each well of a 96-well plate. The plate thus prepared was used for compound screening.
The following method step-by-step assay was followed for compound screening. • 1. Seed THP-1 cells (25,000 cells/well) containing 1.0 μg/ml LPS in 40 μl of RPMI medium (without FBS) in 96-well, black walled, clear bottom cell culture plates coated with poly-D-lysine (VWR #734-0317) • 2. Add 5 μl compound (8 points half-log dilution, with 10 μM top dose) or vehicle (DMSO 0.1% FAC) to the appropriate wells • 3. Incubate for 3 hrs at 37° C., 5% CO2 • 4. Add 5 μl nigericin (Sigma #N7143) (FAC 5 μM) to all wells • 5. Incubate for 1 hr at 37° C., 5% CO2 • 6. At the end of the incubation period, spin plates at 300×g for 3 mins and remove supernatant • 7. Then add 50 μl of resazurin (Sigma #R7017) (FAC 100 μM resazurin in RPMI medium without FBS) and incubate plates for a further 1-2 hrs at 37° C. and 5% CO2 • 8. Plates were read in an Envision reader at Ex 560 nm and Em 590 nm • 9. IC50 data is fitted to a non-linear regression equation (log inhibitor vs response-variable slope 4-parameters)
(In general: The colour change of resazurin is a common sign of viable cells or microbes.)

Assay [2] deals with T1, NLRP3. The assay is described as follows: Human whole blood IL-1β release assay. Further details: Plate out 80 μl of whole blood containing 1 μg/ml of LPS in 96-well, clear bottom cell culture plate; from tissue; host or cells: human whole blood from healthy donors. To be noted: LPS 1 μg/ml, compound 3 hrs, nigericin 10 μM 1 hr, IL-1β by AlphaLisa, read-out: HWB IC50. The class given is cell-based. The method, then: For systemic delivery, the ability to inhibit NLRP3 when the compounds are present within the bloodstream is of great importance. For this reason, the NLRP3 inhibitory activity of a number of compounds in human whole blood was investigated in accordance with the following protocol.
Human whole blood in Li-heparin tubes was obtained from healthy donors from a volunteer donor panel. • 1. Plate out 80 μl of whole blood containing 1 μg/ml of LPS in 96-well, clear bottom cell culture plate (Corning #3585) • 2. Add 10 μl compound (8 points half-log dilution with 10 μM top dose) or vehicle (DMSO 0.1% FAC) to the appropriate wells • 3. Incubate for 3 hrs at 37° C., 5% CO2 • 4. Add 10 μl nigericin (Sigma #N7143) (10 μM FAC) to all wells • 5. Incubate for 1 hr at 37° C., 5% CO2 • 6. At the end of the incubation period, spin plates at 300×g for 5 mins to pellet cells and remove […] of supernatant and add to 96-well v-bottom plates for IL-1β analysis (note: these plates containing the supernatants can be stored at −80° C. to be analysed at a later date) • 7. IL-1β was measured according to the manufacturer protocol (Perkin Elmer-AlphaLisa IL-1 Kit AL220F-5000) • 8. IC50 data is fitted to a non-linear regression equation (log inhibitor vs response-variable slope 4-parameters)
For orientation: Bead proximity is the source of the signal in Alpha formats.

T1 sequence (Q96P20 whole entry): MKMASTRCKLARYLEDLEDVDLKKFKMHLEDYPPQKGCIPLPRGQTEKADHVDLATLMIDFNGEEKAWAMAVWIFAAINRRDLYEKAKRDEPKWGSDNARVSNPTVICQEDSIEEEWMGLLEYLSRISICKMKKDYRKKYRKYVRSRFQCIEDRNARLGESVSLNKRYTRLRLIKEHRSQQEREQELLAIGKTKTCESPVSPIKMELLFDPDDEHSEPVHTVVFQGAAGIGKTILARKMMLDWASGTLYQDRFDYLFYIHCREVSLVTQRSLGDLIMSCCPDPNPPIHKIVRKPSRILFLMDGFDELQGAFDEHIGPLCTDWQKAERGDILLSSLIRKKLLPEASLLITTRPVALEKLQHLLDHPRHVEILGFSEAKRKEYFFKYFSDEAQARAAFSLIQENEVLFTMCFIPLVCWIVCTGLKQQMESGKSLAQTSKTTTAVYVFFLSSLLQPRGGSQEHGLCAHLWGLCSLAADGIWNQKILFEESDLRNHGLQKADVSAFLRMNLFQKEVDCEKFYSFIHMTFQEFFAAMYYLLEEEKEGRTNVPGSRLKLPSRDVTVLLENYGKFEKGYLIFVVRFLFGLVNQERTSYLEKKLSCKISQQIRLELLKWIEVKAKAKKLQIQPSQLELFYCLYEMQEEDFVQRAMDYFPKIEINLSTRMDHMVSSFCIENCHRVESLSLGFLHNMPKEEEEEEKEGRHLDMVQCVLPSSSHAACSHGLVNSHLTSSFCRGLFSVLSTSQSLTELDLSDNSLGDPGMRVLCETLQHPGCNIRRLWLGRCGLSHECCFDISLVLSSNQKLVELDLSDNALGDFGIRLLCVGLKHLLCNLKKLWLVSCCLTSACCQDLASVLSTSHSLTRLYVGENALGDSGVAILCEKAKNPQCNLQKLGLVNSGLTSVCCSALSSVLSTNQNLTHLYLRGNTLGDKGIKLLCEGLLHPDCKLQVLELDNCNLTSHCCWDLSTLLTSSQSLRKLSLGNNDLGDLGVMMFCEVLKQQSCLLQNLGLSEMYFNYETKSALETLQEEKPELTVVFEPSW

`CC1(C)COCCOc2cc(ccn2)-c2ccc3c(c2NC(=O)NS(=O)(=O)c2ccn1n2)CCC3` [Example 12, 19,19-dimethyl-21,24-dioxa-14λ^6-thia-11,13,18,26,30-pentaazapentacyclo-[23.3.1.1^15,18.0^2,10.0^5,9]triaconta-1(28),2,4,9,15(30),16,25(29),26-octaene-12,14,14-trione]: the results for the 50% inhibitory concentration (IC50) on NLRP3 [1] and at NLRP3 [2] were 100 to 500 nM and 500 to 1000 nM, respectively.

As for `CN1CCOc2cc(ccn2)-c2ccc3c(c2NC(=O)NS(=O)(=O)c2ccn(n2)C(C)(C)C1=O)CCC3` [Example 13, 19,19,21-trimethyl-24-oxa-14λ^6-thia-11,13,18,21,26,30-hexaazapentacyclo-[23.3.1.1^15,18.0^2,10.0^5,9]triaconta-1(28),2,4,9,15(30),16,25(29),26-octaene-12,14,14,2o-tetrone], the concentration for half-maximal inhibition (IC50) was in the range of 100 to 500 nM against NLRP3 [1] and 500 to 1000 nM on NLRP3 [2].

With `CN1CCCOc2cc(ccn2)-c2ccc3c(c2NC(=O)NS(=O)(=O)c2cc(n(C4CC4)n2)C1)CCC3` [Example 14, 17-cyclopropyl-20-methyl-24-oxa-14λ^6-thia-11,13,16,17,20, 26-hexaazapentacyclo-[23.3.1.1^15,18.0^2,10.0^5,9]triaconta-1(28),2,4,9,15,18(30),25(29),26-octaene-12,14,14-trione], the concentration for half-maximal inhibition (IC50) fell in the range of 100 to 500 nM against NLRP3 [1] and 1000 to 5000 nM on NLRP3 [2].

As for `O=C1Nc2c(ccc3c2CCC3)-c2ccnc(c2)OCCCOCc2cc(nn2C2CC2)S(=O)(=O)N1` [Example 15, 17-cyclopropyl-20,24-dioxa-14λ^6-thia-11,13,16,17,26-pentaazapentacyclo-[23.3.1.1^15,18.0^2,10.0^5,9]triaconta-1(28),2,4,9,15,18(30),25(29),26-octaene-12,14,14-trione], the 50% inhibitory concentration (IC50) against NLRP3 [1] was at most 100 nM; at NLRP3 [2], 100 to 500 nM.

Regarding `CN(C)Cc1cc2nn1CCCCCOc1cc(ccn1)-c1ccc3c(c1NC(=O)NS2(=O)=O)CCC3` [Example 17, 17-[(dimethylamino)-methyl]-24-oxa-14λ^6-thia-11,13,18,26,30-pentaazapentacyclo-[23.3.1.1^15,18.0^2,10.0^5,9]triaconta-1(28),2,4,9,15(30),16,25(29),26-octaene-12,14,14-trione], the IC50 against NLRP3 [1] was at most 100 nM; on NLRP3 [2], 500 to 1000 nM.

In the case of `CN1CCOc2cc(ccn2)-c2ccc3c(c2NC(=O)NS(=O)(=O)c2ccn(n2)C(C)(C)C1)CCC3` [Example 18, 19,19,21-trimethyl-24-oxa-14λ^6-thia-11,13,18,21,26,30-hexaazapentacyclo-[23.3.1.1^15,18.0^2,10.0^5,9]triaconta-1(28),2,4,9,15(30),16,25(29),26-octaene-12,14,14-trione], the 50% inhibitory concentration (IC50) against NLRP3 [1] lay within 100 to 500 nM; on NLRP3 [2] it was 500 to 1000 nM.

For the compound `O=C1Nc2c(ccc3c2CCC3)-c2ccnc(c2)OCCCCCS(=O)(=O)N1` [Example 19, 20-oxa-14λ^6-thia-11,13,22-triazatetracyclo-[19.3.1.0^2,10.0^5,9]triaconta-1(24),2,4,9,21(25),22-hexaene-12,14,14-trione], the IC50 on NLRP3 [1] and on NLRP3 [2] was 500 to 1000 nM in each case.

Turning to `O=C1Nc2c(ccc3c2CCC3)-c2ccnc(c2)OCCn2ccc(n2)S(=O)(=O)N1` [Example 20, 21-oxa-14λ^6-thia-11,13,18,23,27-pentaazapentacyclo-[20.3.1.1^15,18.0^2,10.0^5,9]heptacosa-1(25),2,4,9,15(27),16,22(26),23-octaene-12,14,14-trione], the concentration for half-maximal inhibition (IC50) at NLRP3 [1] is at most 100 nM; at NLRP3 [2], 100 to 500 nM.

In the case of `CN(C)Cc1cc2nn1CCCOc1cc(ccn1)-c1ccc3c(c1NC(=O)NS2(=O)=O)CCC3` [Example 22, 17-[(dimethylamino)-methyl]-22-oxa-14λ^6-thia-11,13,18,24,28-pentaazapentacyclo-[21.3.1.1^15,18.0^2,10.0^5,9]octacosa-1(26),2,4,9,15(28),16,23(27),24-octaene-12,14,14-trione], the IC50 against NLRP3 [1] and on NLRP3 [2] was 100 to 500 nM throughout.

In the case of `O=C1Nc2c(ccc3c2CCC3)-c2ccnc(c2)OCCCn2cc(F)c(n2)S(=O)(=O)N1` [Example 23, 16-fluoro-22-oxa-14λ^6-thia-11,13,18,24,28-pentaazapentacyclo-[21.3.1.1^15,18.0^2,10.0^5,9]octacosa-1(26),2,4,9,15(28),16,23(27),24-octaene-12,14,14-trione], the half-inhibitory concentration (IC50) at NLRP3 [1] and on NLRP3 [2] was 100 to 500 nM throughout.

Consider `Cc1cc2c(c3c1-c1ccnc(c1)OCC(C)(C)n1ccc(n1)S(=O)(=O)NC(=O)N3)CCC2` [Example 24, 3,19,19-trimethyl-21-oxa-14λ^6-thia-11,13,18,23,27-pentaazapentacyclo-[20.3.1.1^15,18.0^2,10.0^5,9]heptacosa-1(25),2(10),3,5(9),15(27),16,22(26),23-octaene-12,14,14-trione, Sodium Salt], for which the IC50 was at most 100 nM against NLRP3 [1] and 100 to 500 nM at NLRP3 [2].

For `O=C1Nc2c(ccc3c2CCC3)-c2ccnc(c2)OCCn2cc(F)c(n2)S(=O)(=O)N1` [Example 25, 16-fluoro-21-oxa-14λ^6-thia-11,13,18,23,27-pentaazapentacyclo-[20.3.1.1^15,18.0^2,10.0^5,9]heptacosa-1(25),2,4,9,15(27),16,22(26),23-octaene-12,14,14-trione], the IC50 against NLRP3 [1] and at NLRP3 [2] was at most 100 nM throughout.

Turning to `Cc1cc2c(c3c1-c1ccnc(c1)OCC(C)(C)n1cc(F)c(n1)S(=O)(=O)NC(=O)N3)CCC2` [Example 26], the values for the IC50 against NLRP3 [1] and at NLRP3 [2] were at most 100 nM and 100 to 500 nM, respectively.

Regarding `CC1(C)COc2cc(ccn2)-c2ccc3c(c2NC(=O)NS(=O)(=O)c2nn1cc2F)CCC3` [Example 27, 16-fluoro-19,19-dimethyl-21-oxa-14λ^6-thia-11,13,18,23,27-pentaaza-pentacyclo[20.3.1.1^15,18.0^2,10.0^5,9]-heptacosa-1(25),2,4,9,15(27),16,22(26),23-octaene-12,14,14-trione, sodium salt], the values for the IC50 at NLRP3 [1] and on NLRP3 [2] were at most 100 nM and 100 to 500 nM, respectively.

`Cc1cc2c(c3c1-c1ccnc(c1)OCCn1ccc(n1)S(=O)(=O)NC(=O)N3)CCC2` [Example 28, 3-methyl-21-oxa-14λ^6-thia-11,13,18,23,27-pentaazapentacyclo-[20.3.1.1^15,18.0^2,10.0^5,9]heptacosa-1(25),2(10),3,5(9),15(27),16,22(26),23-octaene-12,14,14-trione, sodium salt]: the 50% inhibitory concentration (IC50) at NLRP3 [1] is at most 100 nM; at NLRP3 [2], 100 to 500 nM.

Turning to `Cc1cc2c(c3c1-c1ccnc(c1)OCCn1cc(F)c(n1)S(=O)(=O)NC(=O)N3)CCC2` [Example 29, 16-fluoro-3-methyl-21-oxa-14λ^6-thia-11,13,18,23,27-pentaaza-pentacyclo[20.3.1.1^15,18.0^2,10.0^5,9]-heptacosa-1(25),2(10),3,5(9),15(27),16,22(26),23-octaene-12,14,14-trione, sodium salt], the half-maximal inhibitory concentration (IC50) is at most 100 nM against NLRP3 [1] and 100 to 500 nM at NLRP3 [2].

In the case of `CC(C)c1cc(F)cc2c1NC(=O)NS(=O)(=O)c1nn(cc1F)C(C)(C)COc1cc-2ccn1` [Example 30, 4,13-difluoro-16,16-dimethyl-6-(propan-2-yl)-18-oxa-11λ^6-thia-8,10,15,20,24-pentaazatetracyclo-[17.3.1.1^12,15.0^2,7]tetracosa-1(22),2(7),3,5,12(24),13,19 (23),20-octaene-9,11,11-trione, sodium salt], the half-maximal inhibitory concentration (IC50) against NLRP3 [1] was at most 100 nM; at NLRP3 [2], 100 to 500 nM.
